We go through 16 molecules from patent US8293744B2, “Heterocyclic fused cinnoline M1 receptor positive allosteric modulators” (Merck Sharp & Dohme Corp., priority 2009, dated 2012).

SMILES strings stand for the structures.

For this test, the target named is T1, acetylcholine muscarinic M1 receptor (Homo sapiens, UniProt P11229).
T1 construct: expressed in transfected cells; host or cells: CHOnfat (CHO cells; also called CHOK1/hM1)
T1 sequence (P11229 1-460): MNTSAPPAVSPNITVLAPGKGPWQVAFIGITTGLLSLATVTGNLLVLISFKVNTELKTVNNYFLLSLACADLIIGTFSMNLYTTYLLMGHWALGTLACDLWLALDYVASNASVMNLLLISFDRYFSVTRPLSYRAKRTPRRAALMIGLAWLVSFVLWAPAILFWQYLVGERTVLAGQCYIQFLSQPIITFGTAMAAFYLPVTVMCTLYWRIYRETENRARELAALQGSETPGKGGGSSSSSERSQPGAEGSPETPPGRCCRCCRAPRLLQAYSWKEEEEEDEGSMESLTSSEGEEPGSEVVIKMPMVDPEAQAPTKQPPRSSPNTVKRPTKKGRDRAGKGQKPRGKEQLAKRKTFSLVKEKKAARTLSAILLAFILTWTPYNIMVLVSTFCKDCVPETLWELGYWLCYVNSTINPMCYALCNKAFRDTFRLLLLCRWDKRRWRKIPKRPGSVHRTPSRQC
Kind of test: muscarinic FLIPR assay: potentiation of acetylcholine (EC20)-stimulated intracellular Ca2+ in CHOnfat/hM1 cells. Format: cell-based. The settings on record: 4 min preincubation, then EC20 acetylcholine (3 nM final), read-out: IP Value (inflection point). On the procedure:
The assay studies the effect of one or several concentrations of test compounds on basal or acetylcholine-stimulated Ca^2+ levels using FLIPR.
Compounds are prepared and subjected to a preincubation period of 4 min. Thereafter, a single EC20 concentration of acetylcholine is added to each well (3 nM final). The intracellular Ca^2+ level of each sample is measured and compared to an acetylcholine control to determine any modulatory activity
Cells: CHOnfat/hM1, hM2, hM3 or hM4 cells are plated 24 hr before the assay at a density of 18,000 cells/well (100 μL) in a 384 well plate. CHOnfat/hM1 and CHOnfat/hM3 Growth Medium: 90% DMEM (Hi Glucose); 10% HI FBS; 2 mM L-glutamine; 0.1 mM NEAA; Pen-Strep; and 1 mg/ml Geneticin, are added. For M2Gqi5CHOnfat and M4Gqi5CHOnfat cells, an additional 600 ug/ml hygromycin is added.
Equipment: 384 well plate, 120 μL addition plate; 96-well Whatman 2 ml Uniplate Incubator, 37° C., 5% CO2; Skatron EMBLA-384 Plate Washer; Multimek Pipetting System; Genesis Freedom 200 System; Mosquito System; Temo Nanolitre Pipetting System; and FLIPR^384 Fluorometric Imaging Plate Reader System are used.
Buffers. Assay Buffer: Hanks Balanced Salt Solution, with 20 mM Hepes, 2.5 mM Probenecid (Sigma P-8761) first dissolved in 1 N NaOH, 1% Bovine Serum Albumin (Sigma A-9647). Dye Loading Buffer: Assay Buffer plus 1% Fetal Bovine Serum and Fluo-4AM/Pluronic Acid Mixture. 2 mM Fluo-4AM ester stock in DMSO (Molecular Probes F-14202) Concentration of 2 μM in buffer for a final concentration of 1 μM in Assay. 20% Pluronic Acid Solution stock, with concentration of 0.04% in Buffer, 0.02% in Assay.
65 μL of 2 mM Fluo-4AM are mixed with 130 μL of 20% Pluronic Acid. The resulting solution and 650 μL FBS is added to the assay buffer for a total volume of 65 mL. Positive Controls; 4-Br-A23187: 10 mM in DMSO; final concentration 10 μM. Acetylcholine: 10 mM in water, working stock at both 20 μM and 30 μM in assay buffer, final concentration of 10 μM. This is used to check the maximum stimulation of the CHOK1/hM1 cells. 20 μM (2×) acetylcholine is added in the preincubation part of the assay, and the 30 μM (3×) stock is added in the second part. (EC20)Acetylcholine; 10 mM in water, working stock of 9 nM (3×), and final concentration in assay is 3 nM. This is used after the preincubation with test compounds. Addition of the EC20 Acetylcholine to each well with a test compound will ascertain any modulator activity. 24 wells contain 3 nM Acetylcholine alone as a control.
Screening Plate: Compounds are titrated in 96-well plates (columns 2-11), 100% DMSO, started at a concentration of 15 mM (150× stock concentration), and 3-fold serial dilutions using Genesis Freedom 200 System. Four 96-well plates are combined into a 384-well plate using Mosquito Nanolitre Pipetting System by transferring 1 μl of serial diluted compounds to each well, and 1 mM acetylcholine (100× stock concentration) were added as a control. Using Temo, 49 μl assay buffer is added to each well of the 384-well plate right before assay.
In a 96-well Whatman 2 ml Uniplate, 9 nM Acetylcholine (3×) is pipetted into wells corresponding to the screening compounds, and into control wells. The 30 μM acetylcholine control (3×) is added into control wells, and the 3× agonist plate is transferred into a 384 well plate.
Cells are washed three times with 100 μL of buffer, leaving 30 μL of buffer in each well. Using Multimek, 30 μL of Dye Loading Buffer is added into each well and incubated at 37° C., 5% CO2 for up to one hr.
After 60 min, the cells are washed three times with 100 μL of buffer, leaving 30 μL of buffer in each well. The cell plate, screening plate, and agonist addition plates are placed on the platform in the FLIPR and the door closed. A signal test to check background fluorescence and basal fluorescence signal is performed. Laser intensity is adjusted if necessary. […]
As to `Cc1ccc(-c2ccc(Cn3nc4c(=O)n([C@@H]5CCCC[C@H]5O)nc-4c4cccnc43)cn2)cn1` (racemic) [Example 8, (±)-2-(trans-2-Hydroxycyclohexyl)-5-[(6′-methyl-2,3′-bipyridin-5-yl)methyl]-2,5-dihydro-3H-pyrazolo[4,3-c]pyrido[3,2-e]pyridazin-3-one], the EC50 was 140 nM.

As to `Cc1ccc(-c2ccc(Cn3nc4c(=O)n(C5CCCOC5)nc-4c4cccnc43)cn2)cn1` (racemic) [Example 9, (±)-5-[(6′-Methyl-2,3′-bipyridin-5-yl)methyl]-2-(tetrahydro-2H-pyran-3-yl)-2,5-dihydro-3H-pyrazolo[4,3-c]pyrido[3,2-e]pyridazin-3-one], the EC50 was determined as 1160 nM.

For the molecule `O=c1c2nn(Cc3ccc(-n4cccn4)cc3)c3ncccc3c-2nn1C1CCCOC1` (racemic) [Example 10, (±)-5-{[4-(1H-Pyrazol-1-yl)phenyl]methyl}-2-(tetrahydro-2H-pyran-3-yl)-2,5-dihydro-3H-pyrazolo[4,3-c]pyrido[3,2-e]pyridazin-3-one], the EC50 is 438 nM.

For the molecule `Cc1ccc(-c2ccc(Cn3nc4c(=O)n(C5CCCOC5)nc-4c4cccnc43)cc2)cn1` (racemic) [Example 11, (±)-5-{[4-(6-Methylpyridin-3-yl)phenyl]methyl}-2-(tetrahydro-2H-pyran-3-yl)-2,5-dihydro-3H-pyrazolo[4,3-c]pyrido[3,2-e]pyridazin-3-one], the EC50 is 370 nM.

As to `O=c1c2nn(Cc3ccc(-c4cscn4)cc3)c3ncccc3c-2nn1C1CCCOC1` (racemic) [Example 31, (±)-2-(Tetrahydro-2H-pyran-3-yl)-5-{[4-(1,3-thiazol-4-yl)phenyl]methyl}-2,5-dihydro-3H-pyrazolo[4,3-c]pyrido[3,2-e]pyridazin-3-one], the EC50 was found to be 295 nM.

Regarding `O=c1c2nn(Cc3ccc(-c4ccc(O)nc4)cc3)c3ncccc3c-2nn1C1CCCOC1` (racemic) [Example 32, (±)-5-{[4-(6-Hydroxypyridin-3-yl)phenyl]methyl}-2-(tetrahydro-2H-pyran-3-yl)-2,5-dihydro-3H-pyrazolo[4,3-c]pyrido[3,2-e]pyridazin-3-one], the EC50 is 1690 nM.

As to `O=c1c2nn(Cc3ccc(-n4cccn4)cc3)c3ccsc3c-2nn1C1CCCOC1` (racemic) [Example 37, (±)-5-{[4-(1H-Pyrazol-1-yl)phenyl]methyl}-2-(tetrahydro-2H-pyran-3-yl)-2,5-dihydro-3H-pyrazolo[4,3-c]thieno[2,3-e]pyridazin-3-one], the EC50 was determined as 96 nM.

Turning to `Cc1ccc(-c2ccc(Cn3nc4c(=O)n(C5CCCOC5)nc-4c4sccc43)cc2)cn1` (racemic) [Example 38, (±)-5-{[4-(6-Methylpyridin-3-yl)phenyl]methyl}-2-(tetrahydro-2H-pyran-3-yl)-2,5-dihydro-3H-pyrazolo[4,3-c]thieno[2,3-e]pyridazin-3-one], the EC50 is 183 nM.

Take `Cc1cc(-c2ccc(Cn3nc4c(=O)n(C5CCCOC5)nc-4c4sccc43)cc2)ccn1` (racemic) [Example 39, (±)-5-{[4-(2-Methylpyridin-4-yl)phenyl]methyl}-2-(tetrahydro-2H-pyran-3-yl)-2,5-dihydro-3H-pyrazolo[4,3-c]thieno[2,3-e]pyridazin-3-one]: the EC50 turned out to be 120 nM.

`Cc1cccc(-n2nc3c4cccnc4n(Cc4ccc(-c5cnn(C)c5)nc4)nc-3c2=O)c1C` [Example 1, 2-(2,3-Dimethylphenyl)-5-{[6-(1-methyl-1H-pyrazol-4-yl)pyridin-3-yl]methyl}-2,5-dihydro-3H-pyrazolo[4,3-c]pyrido[3,2-e]pyridazin-3-one]: the EC50 was 58 nM.

As to `Cc1cccc(-n2nc3c4cccnc4n(Cc4ccc(Cl)nc4)nc-3c2=O)c1C` [Example 4, 5-[(6-Chloropyridin-3-yl)methyl]-2-(2,3-dimethylphenyl)-2,5-dihydro-3H-pyrazolo[4,3-c]pyrido[3,2-e]pyridazin-3-one], the EC50 was 366 nM.

As for `Cc1ccc(-c2ccc(Cn3nc4c(=O)n(-c5cccc(C)c5C)nc-4c4cccnc43)cn2)cn1` [Example 5, 2-(2,3-Dimethylphenyl)-5-[(6′-methyl-2,3′-bipyridin-5-yl)methyl]-2,5-dihydro-3H-pyrazolo[4,3-c]pyrido[3,2-e]pyridazin-3-one], the EC50 is 109 nM.

With `Cc1ccc(-c2ccc(Cn3nc4c(=O)n(-c5cccc(C)c5F)nc-4c4cccnc43)cn2)cn1` [Example 6, 2-(2-Fluoro-3-methylphenyl)-5-[(6′-methyl-2,3′-bipyridin-5-yl)methyl]-2,5-dihydro-3H-pyrazolo[4,3-c]pyrido[3,2-e]pyridazin-3-one], the EC50 came to 36 nM.

`Cc1cncc(-c2ccc(Cn3nc4c(=O)n(C5CCCOC5)nc-4c4cccnc43)cc2)c1` (stereo not shown) [Example 13]: the EC50 came to 578 nM.

Turning to `Cc1ccccc1-n1nc2c3sccc3n(Cc3ccc(-n4cccn4)cc3)nc-2c1=O` [Example 33, 2-(2-Methylphenyl)-5-{[4-(1H-pyrazol-1-yl)phenyl]methyl}-2,5-dihydro-3H-pyrazolo[4,3-c]thieno[2,3-e]pyridazin-3-one], the EC50 was found to be 48 nM.

For `Cc1c(-n2nc3c4sccc4n(Cc4ccc(-n5cccn5)cc4)nc-3c2=O)ccnc1F` [Example 34], the EC50 stood at 33 nM.
